Several values for one entry are separate records, joined by “and”; a condition that tells them apart may be missing. Equal entries are not always repeated.
Experiments:
Type in all cases: cell-based
[1] = system: S. aureus ATCC 6538; assay: Photo-oxidation test, antibacterial activity on S. aureus; conditions: for Percentage bacterial load die-off: initial 10^8 CFU/ml S. aureus, 100 W lamp, 40 W/m^2
Experimental: (§1) The bacterial strains used in the photo-oxidation tests are S. aureus ATCC 6538 and E. hirae ATCC 10541. The bacterial culture in exponential phase is obtained by inoculation in 10 mL of Nutrient Broth No. 2 and incubation at 37° C. Next the culture is centrifuged for 15 minutes at 3200 rpm and the pellet is resuspended in PBS 0.01 M in order to obtain a bacterial concentration equal to about 10^8 CFU/mL (Abs600≈0.1). This suspension was used for the photo-oxidation tests in the conditions described hereunder.
The photo-oxidative treatment was carried out using various light sources: • Lamp A: 100 W incandescent lamp, able to irradiate the bacterial suspension with a fluence rate equal to 40 W/m^2. The […] component of the luminous radiation is removed by filtering the light through a layer of water equal to 0.5 cm; • Lamp B: blue LED lamp, with maximum emission at 473 nm, connected to a power supply that controls its fluence rate between 24 and 50 W/m^2; • Lamp C: lamp with blue LED, with maximum emission at 473 nm, with a fluence rate equal to 10 W/m^2; • Lamp D: lamp with red LED, with maximum emission at 635 nm, with a fluence rate equal to 10 W/m^2.
(§2) The luminous intensity supplied by the light sources was evaluated by radiometer (DeltaOhm HD 2302.0 equipped with LP 471 RAD sensor).
The photo-oxidation tests were performed on a culture volume equal to 1 mL, using a plate with 48 wells with diameter of 1 cm and capacity of 1.5 mL. The multi-well plate is positioned above a magnetic stirrer and under the light source. A volume of a 330 μM solution of PCCox in DMSO is added to the bacterial suspension in order to obtain various concentrations of the photosensitizer (0.05 μM, 0.5 μM, 5 μM and 20 μM). The solution is stirred by small magnetic anchors throughout the treatment. The intrinsic toxicity, i.e. the toxicity not induced by the light, of the PCCox was evaluated on bacterial cultures of S. aureus and E. hirae incubated for 60 minutes in the dark with various concentrations of PCCox: in FIG. 3 are reported the results obtained on S. aureus; similar results were obtained with E. hirae. The percentage of DMSO present in the culture treated never exceeds 6%. […] In FIG. 4 are reported the results obtained with E. hirae; similar results were obtained with S. aureus.
The duration of the treatment is different for S. aureus (15, 30 and 60 minutes) and E. hirae (60 and 120 minutes).
The influence of a step of incubation of the bacterial culture in the dark in the presence of the molecule was evaluated before the irradiation step. In FIG. 5 are reported the results obtained with S. aureus.
At each time interval, a volume of bacterial suspension of 100 μL is taken and is diluted in PBS 0.01 M using an optimum dilution factor for the bacterial culture. From each dilution, 100 μL of bacterial suspension is taken (1000 μL is taken from the samples of primary effluent), seeded in MSA medium for S. aureus and Mf-Enterococcus Selective Agar for E. hirae on Petri dishes and incubated in the dark at 37° C. for 18-24 hours. The same procedure is carried out for the control samples, used for testing the activity of PCCox in the dark and the vitality of the bacterial suspension, without photosensitizer, exposed to the light or incubated in the dark. These samples are analysed at the end of the treatment. Each test is carried out at least in triplicate, and the survival data in terms of CFU/mL are expressed as the mean and standard deviation. The percentage survival is calculated respect to the concentration of bacteria measured on the control sample exposed to the light, analysed at the end of the test.

[2] = system: S. aureus; assay: Intrinsic toxicity of PCCox in the dark on bacterial cultures; conditions: no light activation
Experimental: FIG. 3. Toxicity test of the pentaphyrine PCCox evaluating the vitality of a bacterial culture of S. aureus incubated for 60 minutes in the dark with various concentrations of 20-(4-carboxyphenyl)-2,13-dimethyl-3,12-diethyl-[22] pentaphyrine (PCCox) (0.05 μM, 0.5 μM and 5 μM).
The photo-oxidation tests were performed on a culture volume equal to 1 mL, using a plate with 48 wells with diameter of 1 cm and capacity of 1.5 mL. The multi-well plate is positioned above a magnetic stirrer and under the light source. A volume of a 330 μM solution of PCCox in DMSO is added to the bacterial suspension in order to obtain various concentrations of the photosensitizer (0.05 μM, 0.5 μM, 5 μM and 20 μM). […] The intrinsic toxicity, i.e. the toxicity not induced by the light, of the PCCox was evaluated on bacterial cultures of S. aureus and E. hirae incubated for 60 minutes in the dark with various concentrations of PCCox: in FIG. 3 are reported the results obtained on S. aureus; similar results were obtained with E. hirae. […]
At each time interval, a volume of bacterial suspension of 100 μL is taken and is diluted in PBS 0.01 M using an optimum dilution factor for the bacterial culture. […] These samples are analysed at the end of the treatment. Each test is carried out at least in triplicate, and the survival data in terms of CFU/mL are expressed as the mean and standard deviation. […]

[3] = system: Gram-positive bacterial population of the genus Enterococcus; assay: Photo-oxidation test on primary effluent of a purification plant; conditions: PCCox 20 μM
Experimental: FIG. 12. Photo-oxidation test for evaluating the antibacterial activity of the pentaphyrine PCCox (concentration of solution 20 μM) on a real sample, in this case primary effluent of a purification plant for treating municipal waste. The activity of PCCox was evaluated with respect to the Gram-positive bacterial population of the genus Enterococcus, which is present in the sample treated at a concentration equal to 10^4 CFU/mL. The test was carried out with a source of blue light (473 nm) at a luminous intensity equal to 50 W/m^2. The percentage survival of enterococci following treatment with PCCox, in the experimental conditions, is equal to 31%. […]
(§3) The photo-oxidation tests were performed on a culture volume equal to 1 mL, using a plate with 48 wells with diameter of 1 cm and capacity of 1.5 mL. […] The intrinsic toxicity, i.e. the toxicity not induced by the light, of the PCCox was evaluated on bacterial cultures of S. aureus and E. hirae incubated for 60 minutes in the dark with various concentrations of PCCox: in FIG. 3 are reported the results obtained on S. aureus; similar results were obtained with E. hirae. […]
(§4) At each time interval, a volume of bacterial suspension of 100 μL is taken and is diluted in PBS 0.01 M using an optimum dilution factor for the bacterial culture. […] These samples are analysed at the end of the treatment. […]

[4] = system: E. hirae ATCC 10541; assay: Photo-oxidation test, antibacterial activity on E. hirae; conditions: PCCox 20 μM; 120 min of illumination with lamp B at 50 W/m2; preliminary tests
Experimental: as §1, with “hereunder. […]” for “hereunder.”
as §2, §3, §4

CCC1=C(C)c2cc3nc(c(-c4ccc(C(=O)O)cc4)c4ccc(cc5nc(cc6ccc(cc1n2)[nH]6)C(CC)=C5C)[nH]4)C=C3 [PCCox, 20-(4-carboxyphenyl)-2,13-dimethyl-3,12-diethyl-[22] pentaphyrine]
Percentage bacterial load die-off ([1]; PCCox 0.05 μM, 15 min): 99.77%
Percentage bacterial load die-off ([1]; PCCox 0.05 μM, 30 min): 99.9% and 99.89%
bacterial load die-off ([1]; PCCox 0.05 μM, 30 min of treatment, lamp A): 3 log
Percentage bacterial load die-off ([1]; PCCox 0.05 μM, 60 min): 99.97%
Percentage bacterial load die-off ([1]; PCCox 0.5 μM, 15 min): 100%
Percentage bacterial load die-off ([1]; PCCox 0.5 μM, 30 min): 99.99%
Percentage bacterial load die-off ([1]; PCCox 0.5 μM, 60 min): 100%
Percentage bacterial load die-off ([1]; PCCox 5 μM, 15 min): 99.9988%
Percentage bacterial load die-off ([1]; PCCox 5 μM, 30 min): 100%
Percentage bacterial load die-off ([1]; PCCox 5 μM, 60 min): 100%
die-off ([1]; PCCox 5 μM, 60 min with lamp A (100 W, 40 W/m^2), initial load 10^11-10^13 CFU/ml): 10 log
die-off ([1]; PCCox 5 μM, blue LED, maximum emission 473 nm, fluence rate between 24 and 50 W/m^2): 10 log
bactericidal effect ([1]; PCCox 5 μM, lamp C blue LED at 10 W/m^2, 60 min of illumination, pre-incubation 1 h in the dark): 3 log
influence of incubation time on bactericidal efficiency ([1]; PCCox 5 μM, with or without pre-incubation in the dark for 1 h, blue light 24 W/m^2): not influenced in any way by the incubation time
initial bacterial load destroyed ([1]; PCCox 5 μM, within 15 min of exposure to the light, initial load 10^8-10^13 CFU/ml): 99.999%
bactericidal effect (phototoxic efficacy) ([1]; white light (lamp A, 40 W/m^2), after 15 min of irradiation): 5 log
bactericidal activity in the dark [2]: does not have bactericidal activity in the dark
percentage survival of enterococci ([3]; primary effluent, 10^4 CFU/mL, blue light 473 nm, 50 W/m^2): 31%
die-off ([3]; primary wastewater, in terms of E. hirae, blue light 50 W/m^2): up to 70%
die-off [4]: 4 log
